In patent US4239779A, “Use of phenylglyoxylic acids and derivatives thereof in the treatment of ischemic heart disease” (Pfizer Inc., priority 1979, dated 1980):

Key:
anesthetized beagle dogs = experiment: Myocardial blood flow and metabolism in fasted, closed-chest, anesthetized, electrically paced beagle dogs; format: in vivo, dog; details: 0.02 to 0.1 millimole/kg intravenously; in the presence and absence of isoprenaline
Description: The ability of compounds of formula (I) to reduce oxygen demand and affect the relative utilization of carbohydrate and lipid metabolites in the heart may be assessed by measuring the effect of the compounds on myocardial blood flow and metabolism in fasted, closed-chest, anesthetized beagle dogs, with cardiac catheterization to enable simultaneous sampling of coronary sinus and arterial blood to be carried out. Coronary sinus blood flow is measured by the hydrogen gas clearance technique described by Aukland et al (Circulation Res. 1964, 14, 164). The heart is paced electrically at 155 beats/min. and recordings of hemodynamic parameters (blood pressure, left ventricular pressure and the first derivative of the latter) are made continuously. Control measurements of coronary blood flow are made and samples of blood taken at 40 min. intervals, both in an untreated animal and in the same animal dosed with an infusion of isoprenaline ([…].), which both stimulates cardiac contraction and increases plasma free fatty acid levels. The compound of formula (I) is then administered intravenously and measurements are made and samples taken again, 40 minutes and 90 minutes later. The blood samples from the artery and coronary sinus are analyzed for oxyhemoglobin, pyruvate and free fatty acid (FFA) content, differences between those of the arterial and coronary sinus blood, when multiplied by coronary blood flow, being a measure of oxygen consumption, pyruvate uptake and FFA uptake by the myocardium respectively.

[1] = tested on: pyruvate dehydrogenase (PDH); experiment: Proportion of active pyruvate dehydrogenase (PDHa/PDHt) in hearts of fat-fed rats after dosing; format: in vivo; details: rat heart
Description: (2) Rats fed on a high fat diet as in test (1) (a), are treated either with placebo or with the compound of formula (I), by subcutaneous or intravenous injection or by oral administration, and at various times after treatment the rat hearts are removed and homogenized, under conditions which minimize changes in the proportion of the pyruvate dehydrogenase enzyme which is present in the active form, as described by Whitehouse and Randle (Biochem. J. 1973, 134, 651). The total amount of the enzyme present (PDHt) and the amount which is present in the active form (PDHa) are assessed by a method similar to that described by Taylor et al (J. Biol. Chem. 1973, 248, 73). The fat-feeding process is found to depress the ratio PDHa/PDHt from a normal value of about 0.7 to a value in the range from 0.05 to 0.2.

Structure (SMILES)	myocardial blood flow (anesthetized beagle dogs)	myocardial oxygen consumption (anesthetized beagle dogs)	myocardial pyruvate uptake (anesthetized beagle dogs)	period of increased myocardial pyruvate uptake after dosing (anesthetized beagle dogs)	PDHa/PDHt ratio at 1.5 hours ([1]; dose 0.6 mM/kg subcutaneous, placebo ratio 0.12)	PDHa/PDHt ratio at 1.5 hours ([1]; dose 1.2 mM/kg subcutaneous, placebo ratios 0.11-0.24)
O=C(O)C(=O)c1ccc(O)cc1 [OH, H, OH, p-hydroxyphenylglyoxylic acid]	increased	decreased	increases	at least 90 minutes	–	–
CSc1ccc(C(=O)C(=O)O)cc1 [SCH3, H, OH, p-(methylthio)phenylglyoxylic acid]	–	–	–	–	0.24	0.47
